Test results: patent publication US9796719B2, “Compounds and pharmaceutical compositions thereof for the treatment of inflammatory disorders” (GALAPAGOS NV, priority 2013, dated 2017)

What was measured:
recruited BALF cells = experiment: LPS induced lung inflammation model (in-LPS test); type: in vivo, mouse; settings: versus inLPS Vehicle group
Description: The aim of the assay is to assess the effect of a test compound in a mouse model of acute lung inflammation induced by intranasal instillation of LPS. The impact on the induced cells recruitment in lung is evaluated by measurement of white cells count in broncho-alveolar lavage (BAL) fluid with VetABC device (medical solution gmbh, Rothusstrasse 23, 6331 Hunenberg, Switzerland).
The animals (BALB/c J mice, 18-20 g) are obtained from Harlan Laboratories (Maison-Alfort, France). The animals are maintained on 12 hours light/dark cycle at 22° C. with ad libitum access to tap water and food. Litters are changed twice a week. For each tested compound, a group of 10 subjects is used. In addition to the test compound-treated groups, a vehicle+LPS control group (inLPS), a non-treated group (intact), and a positive control dexamethasone treated group (DEX) are used.
LPS is dissolved in saline solution in order to obtain a final 10 μg/50 μL solution for intranasal instillation, and administered at 50 μL/mouse by intranasal instillation.
The test compounds are prepared in 15 mL PEG200 (9 mL)/H2O (6 mL) to be dosed in a range of 0.3, 1, 3, 10, and 30 mg/kg, and then kept at room temperature in the dark, and are administered once (qd) or twice daily (bid) over 2 days.
Dexamethasone (10 mg/kg, bid, po) is used as a positive control.
On day 1, mice are anaesthetized by isoflurane inhalation. During breathing, LPS solution is instilled intra-nasally and mice are monitored until complete recovery from anaesthesia.
On day 2, mice are anaesthetized by intra-peritoneal injection (under a volume of 10 mL/kg) of anaesthetic solution (18 mL NaCl 0.9%+0.5 mL xylazine (5 mg/kg)+1.5 mL ketamine (75 mg/kg)).
The trachea is canulated with a catheter, and BAL is performed by 2×0.75 mL sterile PBS. The BAL fluid removed is shaked gently at room temperature before centrifugation at 1500 r.p.m. during 10 min at 4° C.
The supernatant is removed and the cell pellet is suspended in 200 μL of PBS, kept on ice and total cell count is processed with VetABC device. Finally, mice are sacrificed under anaesthesia.
For each readout, mean and sem are calculated. A difference statistically significant between intact or treated groups and inLPS Vehicle group is evaluated with Prism® software using a one-way ANOVA (for treatment groups) followed by a Student test. *: p<0.05; **: p<0.01; ***: p<0.001 versus inLPS Vehicle group.

hENPP2 [1] = target: T1, hENPP2 (UniProtKB/SwissProt Sequence ref Q13822) (Homo sapiens (Human), UniProt Q13822); experiment: FS3 hENPP2 assay (fluorogenic substrate FS-3); type: biochemical; settings: hENPP2, FS-3 as substrate
Summary of the method: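 Compound dilutions (1/5 steps, top concentration as added 20 μM) were preincubated 30 min at room temperature with hENPP2 (0.4 or 0.64 μg/mL final) in pH 8.0 Tris buffer containing NaCl, KCl, MgCl2, CaCl2 and 0.1% fatty-acid-free BSA. FS-3 (0.75 μM as added) was then hydrolysed for 30 min at 30 °C, and fluorescence was read at 485/520 nm.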

hENPP2 [2] = target: T1, hENPP2; experiment: LPC hENPP2 assay (choline release, LPC as substrate); type: biochemical
Summary of the method: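 Detection is coupled: choline oxidase produces peroxide, which HRP uses to form quinoneimine dye from TOOS and 4-aminoantipyrine, read at 555 nm. The reaction is stopped with 20 mM EGTA in the developer mix, then incubated 30 min at room temperature; inhibition lowers signal.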

LPA 18:2 = experiment: Rat whole blood (plasma) LPA assay; type: biochemical
Description: Whole blood is collected from rats or mouse by exsanguinations on sodium heparin tube, then after centrifugation at 3000 rpm for 15 min at 4° C., plasma is stored at −80° C. Compounds are diluted in DMSO in concentration dependent manner then 0.5 μL are dispensed into 96-wells plate placed in ice. Plasma is defrosted on ice then 49.5 μL of plasma are added into the well containing 0.5 μL of compound (1% DMSO final). Plates are covered with a lid in polypropylene and incubated at +37° C., 5% CO2, for 2 h under gentle shaking (except controls which are stored at −20° C.).
At the end of the incubation, controls are defrosted in ice and transferred in the incubated plates for LC-MS/MS analysis with a non GLP-validated method. For the analysis, plasma proteins from a 10 μL incubated plates are precipitated with an excess of methanol containing the internal standard, LPA 17:0. After centrifugation, the corresponding supernatant is injected on a C18 column. Analytes are eluted out of the column under isocratic conditions. An API5500 QTRAP mass spectrometer (ABSciex™) is used for the detection of LPA 18:2. No calibration curve is prepared for LPA 18:2, however relative quantities are evaluated based on the peak area.

SMILES	Effect significance on recruited BALF cells (recruited BALF cells; 10 mg/kg bid po)	IC50 (hENPP2 [1])	IC50 (hENPP2 [2])	Effect significance on recruited BALF cells (recruited BALF cells; 3 mg/kg bid po)	IC50 (LPA 18:2)	Effect significance on recruited BALF cells (recruited BALF cells; 30 mg/kg bid po)
CCc1nc2ccc(N3CCN(CC(=O)N4CC[C@H](O)C4)CC3)nn2c1N(C)c1nc(-c2ccc(F)cc2)cs1 [Compound 34, (S)-2-(4-(2-ethyl-3-((4-(4-fluorophenyl)thiazol-2-yl)(methyl)amino)imidazo[1,2-b]pyridazin-6-yl)piperazin-1-yl)-1-(3-hydroxypyrrolidin-1-yl)ethanone]	* (*: p<0.05)	0.01 to 25 nM	100 to 500 nM	–	–	–
CCc1nc2ccc(N3CCN(CC(=O)N(C)C)CC3)nn2c1N(C)c1nc(-c2ccc(F)cc2)c(C#N)s1 [Compound 44, 2-(4-(3-((5-cyano-4-(4-fluorophenyl)thiazol-2-yl)(methyl)amino)-2-ethylimidazo[1,2-b]pyridazin-6-yl)piperazin-1-yl)-N,N-dimethylacetamide]	–	–	0.01 to 100 nM	** (**: p<0.01)	–	–
CCc1nc2cnc(N3CCN(CC(=O)N4CC(O)C4)CC3)cn2c1N(C)c1ncc(C#N)c(-c2ccc(F)cc2)n1 [Cpd 19, 2-((2-ethyl-6-(4-(2-(3-hydroxyazetidin-1-yl)-2-oxoethyl)piperazin-1-yl)imidazo[1,2-a]pyrazin-3-yl)(methyl)amino)-4-(4-fluorophenyl) pyrimidine-5-carbonitrile]	–	> 100 nM	> 1000 nM	–	> 1000 nM	–
CCc1nc2cnc(C3CCN(CC(=O)N4CC(O)C4)CC3)cn2c1N(C)c1nc(-c2ccc(F)cc2)c(C#N)s1 [Cpd 23, 2-((2-ethyl-6-(1-(2-(3-hydroxyazetidin-1-yl)-2-oxoethyl)piperidin-4-yl)imidazo[1,2-a]pyrazin-3-yl)(methyl)amino)-4-(4-fluorophenyl) thiazole-5-carbonitrile]	–	0.01 to 25 nM	100 to 500 nM	–	100 to 500 nM	–
CCc1nc2cnc(C3CCN(CC(=O)N4CC[C@@H](O)C4)CC3)cn2c1N(C)c1nc(-c2ccc(F)cc2)c(C#N)s1 [Cpd 24, (R)-2-((2-ethyl-6-(1-(2-(3-hydroxypyrrolidin-1-yl)-2-oxoethyl)piperidin-4-yl)imidazo[1,2-a]pyrazin-3-yl)(methyl)amino)-4-(4-fluorophenyl) thiazole-5-carbonitrile]	–	0.01 to 25 nM	100 to 500 nM	–	0.01 to 100 nM	–
CCc1nc2cnc(C3CCN(CC(=O)N4CC[C@H](O)C4)CC3)cn2c1N(C)c1nc(-c2ccc(F)cc2)c(C#N)s1 [Cpd 25, (S)-2-((2-ethyl-6-(1-(2-(3-hydroxypyrrolidin-1-yl)-2-oxoethyl)piperidin-4-yl)imidazo[1,2-a]pyrazin-3-yl)(methyl)amino)-4-(4-fluorophenyl) thiazole-5-carbonitrile]	–	0.01 to 25 nM	100 to 500 nM	–	0.01 to 100 nM	–
CCc1nc2ccc(N3CCN(CC(=O)N4CC[C@@H](O)C4)CC3)nn2c1N(C)c1nc(-c2ccc(F)cc2)cs1 [Cpd 33, (R)-2-(4-(2-ethyl-3-((4-(4-fluorophenyl)thiazol-2-yl)(methyl)amino)imidazo[1,2-b]pyridazin-6-yl)piperazin-1-yl)-1-(3-hydroxypyrrolidin-l-yl)ethanone]	** (**: p<0.01)	0.01 to 25 nM	100 to 500 nM	–	–	–
CCc1nc2ccc(N3CCN(CC4CNC(=O)O4)CC3)nn2c1N(C)c1nc(-c2ccc(F)cc2)cs1 (stereo not shown) [Cpd 40, 5-((4-(2-ethyl-3-((4-(4-fluorophenyl)thiazol-2-yl)(methyl)amino)imidazo[1,2-b]pyridazin-6-yl)piperazin-1-yl)methyl) oxazolidin-2-one]	–	0.01 to 25 nM	100 to 500 nM	–	100 to 500 nM	–
CCc1nc2ccc(N3CCN(CC(=O)N(C)C)CC3)nn2c1N(C)c1nc(-c2ccc(F)cc2)cs1 [Cpd 42, 2-(4-(2-ethyl-3-((4-(4-fluorophenyl)thiazol-2-yl)(methyl)amino)imidazo[1,2-b]pyridazin-6-yl)piperazin-1-yl)-N,N-dimethylacetamide]	–	0.01 to 25 nM	100 to 500 nM	*** (***: p<0.001)	100 to 500 nM	*** (***: p<0.001)
CCc1nc2ccc(N3CCN(S(=O)(=O)CCCN(C)C)[C@H](CO)C3)nn2c1N(C)c1nc(-c2ccc(F)cc2)cs1 [Cpd 63, (S)-(1-(3-(dimethylamino)propylsulfonyl)-4-(2-ethyl-3-((4-(4-fluorophenyl)thiazol-2-yl)(methyl)amino)imidazo[1,2-b]pyridazin-6-yl)piperazin-2-yl)methanol]	–	0.01 to 25 nM	0.01 to 100 nM	–	0.01 to 100 nM	–
CCc1nc2ccc(C3CCN(CC(=O)N4CC(O)C4)CC3)nn2c1N(C)c1nc(-c2ccc(F)cc2)cs1 [Cpd 201, 2-(4-(2-ethyl-3-((4-(4-fluorophenyl)thiazol-2-yl)(methyl)amino)imidazo[1,2-b]pyridazin-6-yl)piperidin-1-yl)-1-(3-hydroxyazetidin-1-yl)ethanone]	** (**: p<0.01)	0.01 to 25 nM	100 to 500 nM	–	–	–
CCc1nc2ccc(C3CCN(CC(=O)N4CC(O)C4)CC3)nn2c1N(C)c1cccc(-c2ccc(F)cc2C#N)n1 [Cpd 213, 2-(6-((2-ethyl-6-(1-(2-(3-hydroxyazetidin-1-yl)-2-oxoethyl)piperidin-4-yl)imidazo[1,2-b]pyridazin-3-yl)(methyl)amino)pyridin-2-yl)-5-fluorobenzonitrile]	–	0.01 to 25 nM	0.01 to 100 nM	–	100 to 500 nM	–
CCc1nc2ccc(C3CCN(CC(=O)N4CC(O)C4)CC3)nn2c1N(C)c1ccnc(-c2ccc(F)cc2)n1 [Cpd 216, 2-(4-(2-ethyl-3-((2-(4-fluorophenyl)pyrimidin-4-yl)(methyl)amino)imidazo[1,2-b]pyridazin-6-yl)piperidin-1-yl)-1-(3-hydroxyazetidin-1-yl)ethanone]	–	0.01 to 25 nM	500 to 1000 nM	–	> 1000 nM	–
CCc1nc2ccc(C3CCN(CC(=O)N4CC(O)C4)CC3)nn2c1N(C)c1ccc(C#N)c(-c2ccc(F)cc2)n1 [Cpd 218, 6-((2-ethyl-6-(1-(2-(3-hydroxyazetidin-1-yl)-2-oxoethyl)piperidin-4-yl)imidazo[1,2-b]pyridazin-3-yl)(methyl)amino)-2-(4-fluorophenyl) nicotinonitrile]	–	0.01 to 25 nM	100 to 500 nM	–	100 to 500 nM	–
